# Measurements reported in PubChem BioAssay AID367 (MTDP, 2006).
# Activity calls are given as the source filed them. How the calls were made is not given here.
# Target: Gag-Pol polyprotein (Human immunodeficiency virus type 2 subtype A (isolate ROD)) (UniProt P04584)
# Test: Reverse transcriptase ribonuclease H inhibitors, biochemical concentration-response (AID 367)
# Settings: HIV-2 RNase H, FRET RNA/DNA substrate cleavage
# Sequence of Gag-Pol polyprotein (Human immunodeficiency virus type 2 subtype A (isolate ROD)) (P04584 whole entry, looked up): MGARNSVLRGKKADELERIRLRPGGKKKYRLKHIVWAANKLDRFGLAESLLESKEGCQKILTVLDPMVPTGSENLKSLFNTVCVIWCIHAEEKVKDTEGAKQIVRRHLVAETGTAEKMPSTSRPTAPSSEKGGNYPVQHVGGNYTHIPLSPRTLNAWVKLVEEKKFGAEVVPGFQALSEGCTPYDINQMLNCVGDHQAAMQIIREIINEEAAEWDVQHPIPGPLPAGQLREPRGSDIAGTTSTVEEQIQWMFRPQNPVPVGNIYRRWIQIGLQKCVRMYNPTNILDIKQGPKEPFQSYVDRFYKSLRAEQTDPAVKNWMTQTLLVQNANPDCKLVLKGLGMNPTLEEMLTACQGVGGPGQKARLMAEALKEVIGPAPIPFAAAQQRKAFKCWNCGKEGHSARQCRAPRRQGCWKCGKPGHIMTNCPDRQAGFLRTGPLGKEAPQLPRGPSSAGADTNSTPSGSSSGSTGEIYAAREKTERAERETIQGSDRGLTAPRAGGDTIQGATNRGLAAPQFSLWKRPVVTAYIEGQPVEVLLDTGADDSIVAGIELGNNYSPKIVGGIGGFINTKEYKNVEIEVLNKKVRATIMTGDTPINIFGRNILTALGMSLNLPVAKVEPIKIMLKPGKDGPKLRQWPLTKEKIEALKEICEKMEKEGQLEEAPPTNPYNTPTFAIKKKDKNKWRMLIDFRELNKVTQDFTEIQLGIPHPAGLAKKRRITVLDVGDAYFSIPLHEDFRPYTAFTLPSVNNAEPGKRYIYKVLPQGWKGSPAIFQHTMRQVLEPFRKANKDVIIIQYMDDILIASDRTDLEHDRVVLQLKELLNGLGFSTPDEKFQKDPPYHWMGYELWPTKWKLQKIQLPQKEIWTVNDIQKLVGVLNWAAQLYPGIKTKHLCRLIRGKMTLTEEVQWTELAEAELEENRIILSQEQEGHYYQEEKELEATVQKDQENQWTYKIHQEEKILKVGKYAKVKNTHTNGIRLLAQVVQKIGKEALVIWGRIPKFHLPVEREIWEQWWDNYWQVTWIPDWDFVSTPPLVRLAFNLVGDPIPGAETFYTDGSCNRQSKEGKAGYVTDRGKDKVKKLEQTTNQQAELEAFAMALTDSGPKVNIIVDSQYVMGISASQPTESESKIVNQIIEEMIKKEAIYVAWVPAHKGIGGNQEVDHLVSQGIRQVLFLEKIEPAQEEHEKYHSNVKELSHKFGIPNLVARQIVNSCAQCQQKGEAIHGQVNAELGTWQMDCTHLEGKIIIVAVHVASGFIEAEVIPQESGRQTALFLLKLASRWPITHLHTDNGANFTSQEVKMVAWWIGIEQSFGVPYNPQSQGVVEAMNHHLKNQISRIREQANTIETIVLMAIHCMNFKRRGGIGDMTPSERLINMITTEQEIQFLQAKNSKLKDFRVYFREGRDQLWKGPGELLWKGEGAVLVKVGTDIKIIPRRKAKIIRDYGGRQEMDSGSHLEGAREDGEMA
row,SMILES,IC50
1,C=CC1=C(C)C2=NC1=CC1=NC(=CC3=C(C)C4=C(O)C(C(=O)OC)C(=C5NC(=C2)C(C)C5CCC(=O)OC/C=C(\C)CCCC(C)CCCC(C)CCCC(C)C)C4=N3)C(CC)=C1C (centres undefined),> 100 µM (inactive)
2,Cc1ccc(C)n1-c1ccc(SCC(=O)O)cc1,2 µM
3,Cc1ccc(C(=O)NC(=S)Nc2ccc(-c3nc4ccccc4s3)cc2)cc1[N+](=O)[O-],inactive
4,Cc1ccc(N2C(=O)/C(=C/c3ccc(O)c(O)c3)SC2=S)cc1C,4 µM
